Assay results: patent publication US11530210B2, “Substituted heteroaromatic pyrazolo-pyridines and their use as GLUN2B receptor modulators” (JANSSEN PHARMACEUTICA NV, priority 2019, dated 2022)
Counter-ions that a name gives are not always drawn.

Each compound was assayed against T1, human GluN1/GluN2B NMDA receptors (Homo sapiens, UniProt Q13224) (assay: Calcium flux (FLIPR) assay on cloned human NR1/GluN2B ion channels expressed in mammalian cells (standard and HTS variants)). Conditions: cells expressing human GluN1/GluN2B, glutamate and glycine co-agonists.
T1 construct: expressed in transfected cells
T1 sequence (Q13224 27-1484, other chains not shown): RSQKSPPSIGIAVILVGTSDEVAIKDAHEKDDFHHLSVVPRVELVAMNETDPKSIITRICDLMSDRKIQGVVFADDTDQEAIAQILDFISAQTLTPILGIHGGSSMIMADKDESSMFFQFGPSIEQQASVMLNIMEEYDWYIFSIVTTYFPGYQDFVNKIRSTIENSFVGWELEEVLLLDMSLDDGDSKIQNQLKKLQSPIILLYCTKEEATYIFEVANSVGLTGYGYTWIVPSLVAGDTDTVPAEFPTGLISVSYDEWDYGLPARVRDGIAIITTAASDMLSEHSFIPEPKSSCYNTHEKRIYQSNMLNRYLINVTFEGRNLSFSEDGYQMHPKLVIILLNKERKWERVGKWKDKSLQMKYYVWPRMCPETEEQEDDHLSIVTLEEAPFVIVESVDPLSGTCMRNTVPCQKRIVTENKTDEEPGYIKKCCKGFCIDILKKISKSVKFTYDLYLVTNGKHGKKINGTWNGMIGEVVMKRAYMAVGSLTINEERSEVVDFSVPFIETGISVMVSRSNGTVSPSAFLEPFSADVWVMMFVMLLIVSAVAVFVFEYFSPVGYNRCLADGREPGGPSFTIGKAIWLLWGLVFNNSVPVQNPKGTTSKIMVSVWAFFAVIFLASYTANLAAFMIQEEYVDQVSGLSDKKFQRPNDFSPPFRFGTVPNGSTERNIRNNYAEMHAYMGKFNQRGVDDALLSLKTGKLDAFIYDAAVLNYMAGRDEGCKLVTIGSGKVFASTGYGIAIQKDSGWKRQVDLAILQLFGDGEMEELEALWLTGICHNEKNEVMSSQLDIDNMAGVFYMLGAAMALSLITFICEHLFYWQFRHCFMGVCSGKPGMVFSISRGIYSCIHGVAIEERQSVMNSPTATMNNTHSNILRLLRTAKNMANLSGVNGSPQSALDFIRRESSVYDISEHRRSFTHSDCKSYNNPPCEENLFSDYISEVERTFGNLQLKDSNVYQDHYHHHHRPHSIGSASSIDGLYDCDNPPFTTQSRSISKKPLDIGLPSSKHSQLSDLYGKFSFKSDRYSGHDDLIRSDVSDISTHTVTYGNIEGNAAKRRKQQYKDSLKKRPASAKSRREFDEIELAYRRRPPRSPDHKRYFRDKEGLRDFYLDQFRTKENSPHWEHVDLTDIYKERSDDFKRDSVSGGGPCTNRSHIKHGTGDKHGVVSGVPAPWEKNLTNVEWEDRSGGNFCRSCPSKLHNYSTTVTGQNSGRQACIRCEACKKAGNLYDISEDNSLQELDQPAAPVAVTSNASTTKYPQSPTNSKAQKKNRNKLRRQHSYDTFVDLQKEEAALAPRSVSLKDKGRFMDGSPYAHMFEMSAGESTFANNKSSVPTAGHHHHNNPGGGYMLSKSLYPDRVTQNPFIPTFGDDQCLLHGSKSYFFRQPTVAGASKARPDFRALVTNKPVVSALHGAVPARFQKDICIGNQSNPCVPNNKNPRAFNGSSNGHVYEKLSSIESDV
Type: cell-based
Outline: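 Calcium influx read by FLIPR after co-agonist addition (glycine 10 μM, glutamate near EC40) following 5 min compound preincubation, with signal normalized to control wells.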
`COc1cncc(Cn2ncc3ncc(-c4ccc(Cl)c(C(F)F)c4)cc32)c1` [Example 232, 6-[4-chloro-3-(Difluoromethyl)phenyl]-1-[(5-methoxy-3-pyridyl)methyl]pyrazolo[4,3-b]pyridine] showed an IC50 of 40 nM. `Fc1cncc(Cn2ncc3ncc(-c4ccc(F)c(C(F)(F)F)c4)cc32)c1` [Example 233, 1-[(5-Fluoro-3-pyridyl)methyl]-6-[4-fluoro-3-(trifluoromethyl)phenyl]pyrazolo[4,3-b]pyridine] was tested, and the IC50 was 75 nM. `COc1cncc(Cn2ncc3ncc(-c4ccc(F)c(C(F)(F)F)c4)cc32)c1` [Example 234, 6-[4-Fluoro-3-(trifluoromethyl)phenyl]-1-[(5-methoxy-3-pyridyl)methyl]pyrazolo[4,3-b]pyridine] gave an IC50 of 92 nM. In the case of `Fc1ccc(Cn2ncc3ncc(-c4ccc(F)c(Br)c4)cc32)cn1` [Example 235, 6-(3-Bromo-4-fluorophenyl)-1-((6-fluoropyridin-3-yl)methyl)-1H-pyrazolo[4,3-b]pyridine], the IC50 is reported as 253 nM. Work on `CC(F)(F)c1cc(-c2cnc3cnn(Cc4cncc(C#N)c4)c3c2)ccc1Cl` [Example 236, 5-[[6-[4-Chloro-3-(1,1-difluoroethyl)phenyl]pyrazolo[4,3-b]pyridin-1-yl]methyl]pyridine-3-carbonitrile] yielded an IC50 of 494 nM. `CC(F)(F)c1cc(-c2cnc3cnn(Cc4cncc(Cl)c4)c3c2)ccc1Cl` [Example 237, 6-[4-Chloro-3-(1,1-difluoroethyl)phenyl]-1-[(5-chloro-3-pyridyl)methyl]pyrazolo[4,3-b]pyridine] gave an IC50 of 200 nM. In the case of `FC(F)Oc1cc(-c2cnc3cnn(Cc4cccnc4)c3c2)ccc1Cl` [Example 238, 6-[4-Chloro-3-(difluoromethoxy)phenyl]-1-(3-pyridylmethyl)pyrazolo[4,3-b]pyridine], the IC50 is reported as 117 nM. Compound `Cc1cncc(Cn2ncc3ncc(-c4ccc(Cl)c(OC(F)F)c4)cc32)c1` [Example 239, 6-[4-Chloro-3-(difluoromethoxy)phenyl]-1-[(5-methyl-3-pyridyl)methyl]pyrazolo[4,3-b]pyridine] has an IC50 of 120 nM. In the case of `Fc1cncc(Cn2ncc3ncc(-c4ccc(Cl)c(OC(F)F)c4)cc32)c1` [Example 240, 6-[4-Chloro-3-(difluoromethoxy)phenyl]-1-[(5-fluoro-3-pyridyl)methyl]pyrazolo[4,3-b]pyridine], the IC50 is reported as 166 nM. In the case of `N#Cc1cncc(Cn2ncc3ncc(-c4ccc(Cl)c(OC(F)F)c4)cc32)c1` [Example 241, 5-[[6-[4-Chloro-3-(difluoromethoxy)phenyl]pyrazolo[4,3-b]pyridin-1-yl]methyl]pyridine-3-carbonitrile], the IC50 is reported as 151 nM. Compound `COc1cncc(Cn2ncc3ncc(-c4ccc(Cl)c(OC(F)F)c4)cc32)c1` [Example 242, 6-[4-Chloro-3-(difluoromethoxy)phenyl]-1-[(5-methoxy-3-pyridyl)methyl]pyrazolo[4,3-b]pyridine] has an IC50 of 500 nM. `FC(F)Oc1cc(-c2cnc3cnn(Cc4cncc(Cl)c4)c3c2)ccc1Cl` [Example 243, 6-[4-Chloro-3-(difluoromethoxy)phenyl]-1-[(5-chloro-3-pyridyl)methyl]pyrazolo[4,3-b]pyridine] gave an IC50 of 146 nM. For `Cc1c(F)ccc(-c2cnc3cnn(Cc4ccccn4)c3c2)c1F` [Example 244, 6-(2,4-Difluoro-3-methyl-phenyl)-1-(2-pyridylmethyl)pyrazolo[4,3-b]pyridine], the IC50 was 310 nM. `Cc1c(F)ccc(-c2cnc3cnn(Cc4cccnc4)c3c2)c1F` [Example 245, 6-(2,4-Difluoro-3-methyl-phenyl)-1-(3-pyridylmethyl)pyrazolo[4,3-b]pyridine trifluoroacetate salt] was tested, and the IC50 was 33 nM. In the case of `Cc1cncc(Cn2ncc3ncc(-c4ccc(F)c(C)c4F)cc32)c1` [Example 246, 6-(2,4-Difluoro-3-methyl-phenyl)-1-[(5-methyl-3-pyridyl)methyl]pyrazolo[4,3-b]pyridine], the IC50 is reported as 52 nM. Work on `Cc1ccncc1Cn1ncc2ncc(-c3ccc(F)c(C)c3F)cc21` [Example 247, 6-(2,4-Difluoro-3-methyl-phenyl)-1-[(4-methyl-3-pyridyl)methyl]pyrazolo[4,3-b]pyridine trifluoroacetate salt] yielded an IC50 of 128 nM. `Cc1c(F)ccc(-c2cnc3cnn(Cc4ccc(F)nc4)c3c2)c1F` [Example 248, 6-(2,4-Difluoro-3-methyl-phenyl)-1-[(6-fluoro-3-pyridyl)methyl]pyrazolo[4,3-b]pyridine] was tested, and the IC50 was 62 nM. For `Cc1c(F)ccc(-c2cnc3cnn(Cc4cncc(F)c4)c3c2)c1F` [Example 249, 6-(2,4-Difluoro-3-methyl-phenyl)-1-[(5-fluoro-3-pyridyl)methyl]pyrazolo[4,3-b]pyridine trifluoroacetate salt], the IC50 was 40 nM. For `Fc1cc(-c2cnc3cnn(Cc4ccccn4)c3c2)cc(F)c1F` [Example 250, 1-(2-Pyridylmethyl)-6-(3,4,5-trifluorophenyl)pyrazolo[4,3-b]pyridine], the IC50 was 2630 nM. With `Fc1cncc(Cn2ncc3ncc(-c4cc(F)c(F)c(F)c4)cc32)c1` [Example 251, 1-[(5-Fluoro-3-pyridyl)methyl]-6-(3,4,5-trifluorophenyl)pyrazolo[4,3-b]pyridine] the IC50 was 25 nM. For `COc1cncc(Cn2ncc3ncc(-c4cc(F)c(F)c(F)c4)cc32)c1` [Example 252, 1-[(5-Methoxy-3-pyridyl)methyl]-6-(3,4,5-trifluorophenyl)pyrazolo[4,3-b]pyridine], the IC50 was 382 nM. In the case of `Fc1cc(-c2cnc3cnn(Cc4cncc(OC(F)F)c4)c3c2)cc(F)c1F` [Example 253, 1-[[5-(Difluoromethoxy)-3-pyridyl]methyl]-6-(3,4,5-trifluorophenyl)pyrazolo[4,3-b]pyridine], the IC50 is reported as 980 nM. `FC(F)(F)c1cccc(-c2cnc3cnn(Cc4ccnnc4)c3c2)c1` [Example 254, 1-(Pyridazin-4-ylmethyl)-6-[3-(trifluoromethyl)phenyl]pyrazolo[4,3-b]pyridine] was tested, and the IC50 was 548 nM. `Cc1cccc(-c2cnc3cnn(Cc4cccnn4)c3c2)c1` [Example 255, 6-(m-Tolyl)-1-(pyridazin-3-ylmethyl)pyrazolo[4,3-b]pyridine] showed an IC50 of 329 nM. `Fc1cccc(-c2cnc3cnn(Cc4cccnn4)c3c2)c1` [Example 256, 6-(3-Fluorophenyl)-1-(pyridazin-3-ylmethyl)pyrazolo[4,3-b]pyridine trifluoroacetate salt] showed an IC50 of 1410 nM. Compound `CC(F)(F)c1cccc(-c2cnc3cnn(Cc4cccnn4)c3c2)c1` [Example 257, 6-[3-(1,1-Difluoroethyl)phenyl]-1-(pyridazin-3-ylmethyl)pyrazolo[4,3-b]pyridine] has an IC50 of 110 nM. In the case of `FC(F)(F)c1cccc(-c2cnc3cnn(Cc4cccnn4)c3c2)c1` [Example 258, 1-(Pyridazin-3-ylmethyl)-6-[3-(trifluoromethyl)phenyl]pyrazolo[4,3-b]pyridine], the IC50 is reported as 240 nM. `Cc1cc(-c2cnc3cnn(Cc4cccnn4)c3c2)ccc1F` [Example 259, 6-(4-Fluoro-3-methyl-phenyl)-1-(pyridazin-3-ylmethyl)pyrazolo[4,3-b]pyridine trifluoroacetate salt] was tested, and the IC50 was 30 nM. With `CC(F)(F)c1cc(-c2cnc3cnn(Cc4cccnn4)c3c2)ccc1F` [Example 260, 6-[3-(1,1-Difluoroethyl)-4-fluoro-phenyl]-1-(pyridazin-3-ylmethyl)pyrazolo[4,3-b]pyridine] the IC50 was 162 nM. `Cc1ccc(Cn2ncc3ncc(-c4ccc(F)c(C(F)F)c4)cc32)nn1` [Example 262, 6-[3-(Difluoromethyl)-4-fluoro-phenyl]-1-[(6-methylpyridazin-3-yl)methyl]pyrazolo[4,3-b]pyridine] gave an IC50 of 273 nM. `Fc1ccc(-c2cnc3cnn(Cc4cccnn4)c3c2)cc1OC(F)F` [Example 263, 6-[3-(Difluoromethoxy)-4-fluoro-phenyl]-1-(pyridazin-3-ylmethyl)pyrazolo[4,3-b]pyridine] showed an IC50 of 112 nM. In the case of `Cc1ccc(Cn2ncc3ncc(-c4ccc(F)c(OC(F)F)c4)cc32)nn1` [Example 264, 6-[3-(Difluoromethoxy)-4-fluoro-phenyl]-1-[(6-methylpyridazin-3-yl)methyl]pyrazolo[4,3-b]pyridine], the IC50 is reported as 626 nM. Compound `FC(F)Oc1cc(-c2cnc3cnn(Cc4cccnn4)c3c2)ccc1Cl` [Example 265, 6-[4-Chloro-3-(difluoromethoxy)phenyl]-1-(pyridazin-3-ylmethyl)pyrazolo[4,3-b]pyridine] has an IC50 of 115 nM. `Fc1ccc(-c2cnc3cnn(Cc4cccnn4)c3c2)cc1F` [Example 266, 6-(3,4-Difluorophenyl)-1-(pyridazin-3-ylmethyl)pyrazolo[4,3-b]pyridine] was tested, and the IC50 was 670 nM. `Cc1cc(-c2cnc3cnn(Cc4cccnn4)c3c2)ccc1Cl` [Example 267, 6-(4-Chloro-3-methyl-phenyl)-1-(pyridazin-3-ylmethyl)pyrazolo[4,3-b]pyridine] gave an IC50 of 404 nM. Compound `Fc1cc(-c2cnc3cnn(Cc4cccnn4)c3c2)cc(F)c1F` [Example 268, 1-(Pyridazin-3-ylmethyl)-6-(3,4,5-trifluorophenyl)pyrazolo[4,3-b]pyridine] has an IC50 of 673 nM. `Cc1c(F)ccc(-c2cnc3cnn(Cc4cccnn4)c3c2)c1F` [Example 269, 6-(2,4-Difluoro-3-methyl-phenyl)-1-(pyridazin-3-ylmethyl)pyrazolo[4,3-b]pyridine] showed an IC50 of 108 nM. `Fc1ccc(-c2cnc3cnn(Cc4ccncn4)c3c2)cc1C(F)F` [Example 270, 6-[3-(Difluoromethyl)-4-fluoro-phenyl]-1-(pyrimidin-4-ylmethyl)pyrazolo[4,3-b]pyridine] gave an IC50 of 176 nM. With `Fc1ccc(-c2cnc3cnn(Cc4ccncn4)c3c2)cc1OC(F)F` [Example 271, 6-[3-(Difluoromethoxy)-4-fluoro-phenyl]-1-(pyrimidin-4-ylmethyl)pyrazolo[4,3-b]pyridine] the IC50 was 401 nM. With `Fc1ccc(-c2cnc3cnn(Cc4cnccn4)c3c2)cc1C(F)F` [Example 272, 6-[3-(Difluoromethyl)-4-fluoro-phenyl]-1-(pyrazin-2-ylmethyl)pyrazolo[4,3-b]pyridine] the IC50 was 37 nM.
